# Test results reported in US10532048B2, “Tetrahydroisoquinolin-1-one derivative or salt thereof” (Seldar Pharma Inc., priority 2007, dated 2020).
# Where two headings read alike, the source gives them in different places.
# Columns and labels:
# male Wistar rat = assay: Restraint stress-induced defecation model; assay type: in vivo; conditions: read-out: Inhibitory Rate (%) of number of feces excreted
# Method: The compound to be tested of the present test was used by dissolving in water for injection containing 20% propylene glycol+20% Tween 80 or a 0.5% MC (methyl cellulose) solution.
# The number of feces excreted during a period from the restriction commencement to 1 hour thereafter was measured. Normal group was put into a separate cage, and number of feces excreted during 1 hour was measured in the same manner.
# BB2 receptor [1] = target: BB2 receptor (Homo sapiens (Human), UniProt P30550); assay: BB2 receptor binding test (125I [Tyr4] bombesin, PC-3 cell membrane sample); conditions: 125I [Tyr4] bombesin 0.075 nM, room temperature 2 hours, read-out: IC50 (50% binding inhibition concentration)
# BB2 receptor (Homo sapiens (Human), UniProt P30550), sequence (P30550 whole entry): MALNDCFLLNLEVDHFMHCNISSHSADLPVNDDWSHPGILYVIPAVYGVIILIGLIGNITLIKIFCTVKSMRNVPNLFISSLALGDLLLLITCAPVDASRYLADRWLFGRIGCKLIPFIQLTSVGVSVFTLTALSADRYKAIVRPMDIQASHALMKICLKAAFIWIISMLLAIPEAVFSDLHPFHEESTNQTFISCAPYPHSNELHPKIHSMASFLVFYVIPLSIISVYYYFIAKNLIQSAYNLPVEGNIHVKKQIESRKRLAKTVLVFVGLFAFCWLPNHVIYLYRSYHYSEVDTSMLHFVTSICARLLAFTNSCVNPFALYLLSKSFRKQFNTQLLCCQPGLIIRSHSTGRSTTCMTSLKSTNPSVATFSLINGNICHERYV
# Method: A BB2 receptor binding test was carried out using a membrane sample prepared from a human prostate cancer-derived PC-3 cell. […] The cells detached by a trypsin treatment were added with a 50 mM Tris-HCl buffer (pH 7.4, containing 0.2 mg/ml trypsin inhibitor and 0.2 mg/ml benzamidine), and homogenized by Polytron. The cell suspension was centrifuged at 1,500 rpm for 10 minutes, and the supernatant thus obtained was subjected to 1 hour of ultracentrifugation at 37,000×g. The precipitate was suspended in the aforementioned buffer to a concentration of 0.4 mg protein/ml, and stored at −80° C.
# The BB2 receptor binding test was carried out by the following method, and the receptor antagonistic activity of a compound to be tested was calculated. […] Non-specific binding was measured using 1 μM of bombesin. After completion of the incubation, the reaction solution was filtered through a Whatman GF/B filter which had been soaked in 0.5% polyethyleneimine. The radioactivity on the filter was measured using a microplate scintillation counter (Top Count, Perkin-Elmer Co., Ltd.). Further, Ex represents the number of the Example compound.
# BB2 receptor [2] = conditions: stress-induced defecation model; cited from earlier work
# BB2 receptor [3] = conditions: abdominal pain model induced by large intestinal distension; cited from earlier work
# 5-HT3 receptor = 5-HT3 receptor (Homo sapiens (Human), UniProt P46098); conditions: IBS patients; cited from earlier work
# 5-HT3 receptor, sequence (P46098 24-478): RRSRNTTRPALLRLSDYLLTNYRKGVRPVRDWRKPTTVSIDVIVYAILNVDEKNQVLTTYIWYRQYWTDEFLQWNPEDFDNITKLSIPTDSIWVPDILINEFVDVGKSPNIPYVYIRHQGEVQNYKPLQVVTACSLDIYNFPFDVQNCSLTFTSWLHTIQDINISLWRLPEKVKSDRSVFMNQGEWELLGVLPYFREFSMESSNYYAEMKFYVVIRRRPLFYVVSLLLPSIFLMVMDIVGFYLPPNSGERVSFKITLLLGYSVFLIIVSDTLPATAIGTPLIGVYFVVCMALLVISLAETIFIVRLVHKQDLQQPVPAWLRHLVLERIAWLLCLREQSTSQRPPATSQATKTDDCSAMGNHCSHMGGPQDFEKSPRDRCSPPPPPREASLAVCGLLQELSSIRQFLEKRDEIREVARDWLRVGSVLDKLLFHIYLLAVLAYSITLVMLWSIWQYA
# [4] = oral administration 1 mg/kg, 15 minutes before restraint, feces counted for 1 hour
Compound,IC50 (BB2 receptor [1]) [nM],inhibition in vivo at 1 mg/kg (male Wistar rat; [4]) [%],other results
CS(=O)(=O)N[C@H]1CCCC[C@@H]1N1C(=O)c2ccccc2[C@@H](C(=O)NOCc2cc(C(=O)O)cs2)[C@@H]1c1ccc(Cl)cc1Cl [Ex 542],4.7,–,inhibition in vivo at 1 mg/kg (male Wistar rat; 1 h): 40%
CS(=O)(=O)NC(=O)c1cccc(CCNC(=O)[C@@H]2c3ccccc3C(=O)N([C@H]3CCCC[C@@H]3NS(C)(=O)=O)[C@H]2c2ccc(Cl)cc2Cl)c1 [Ex 700],6.7,69.8,–
RC-3095,–,–,efficacy for abnormal bowel motility (BB2 receptor [2]): effective; efficacy for abdominal symptom (abdominal muscle contraction reaction as index) (BB2 receptor [3]): effective
CS(=O)(=O)N[C@H]1CCCC[C@@H]1N1C(=O)c2ccccc2[C@@H](C(=O)NOCc2ccc(CC(=O)O)cc2)[C@@H]1c1ccc(Cl)cc1Cl [Ex 856],6.8,61.4,–
CS(=O)(=O)N[C@H]1CCCC[C@@H]1N1C(=O)c2ccccc2[C@@H](C(=O)NOCc2cccc(C(=O)O)c2)[C@@H]1c1ccc(Cl)cc1Cl [Ex 560],4.8,62.1,–
CS(=O)(=O)N[C@H]1CCCC[C@@H]1N1C(=O)c2ccccc2[C@@H](C(=O)NOCc2cccc(OCCCC(=O)O)c2)[C@@H]1c1ccc(Cl)cc1Cl [Ex 709],8.9,41.5,–
CS(=O)(=O)N[C@H]1CCCC[C@@H]1N1C(=O)c2ccccc2[C@@H](C(=O)NOCc2cccc(OCC(=O)O)c2)[C@@H]1c1ccc(Cl)cc1Cl [Ex 631],4.5,53.8,–
C[C@@H](NC(=O)[C@@H]1c2ccccc2C(=O)N([C@H]2CCCC[C@@H]2NS(C)(=O)=O)[C@H]1c1ccc(Cl)cc1Cl)c1ccccc1 [Ex 236],3,–,–
Cc1[nH]cnc1CN1CCc2c(c3ccccc3n2C)C1=O [alosetron],–,–,improving rate for abdominal symptoms and diarrhea (5-HT3 receptor): 40 to 60%

# Continued, in another order:
IC50 (BB2 receptor [1]) [nM],Compound,inhibition in vivo at 1 mg/kg (male Wistar rat; [4]) [%],other results
7.4,CS(=O)(=O)N[C@H]1CCCC[C@@H]1N1C(=O)c2ccccc2[C@@H](C(=O)NCCc2ccc(CC(=O)O)cc2)[C@@H]1c1ccc(Cl)cc1Cl [Ex 701],41.3,–
12.8,O=C(NCCc1ccccn1)[C@@H]1c2ccccc2C(=O)N([C@H](CO)Cc2ccccc2)[C@H]1c1ccc(Cl)cc1Cl [Ex 61],–,–
6.7,CS(=O)(=O)N[C@H]1CCCC[C@@H]1N1C(=O)c2ccccc2[C@@H](C(=O)NCCc2cccc(C(F)(F)C(=O)O)c2)[C@@H]1c1ccc(Cl)cc1Cl [Ex 712],55,–
5.7,CS(=O)(=O)N[C@H]1CCCC[C@@H]1N1C(=O)c2ccccc2[C@@H](C(=O)NOCc2ccccn2)[C@@H]1c1ccc(Cl)cc1Cl [Ex 589],73.9,–
